Measured values: patent publication US11684614B2, “Formulations of hydroxypyridonate actinide/lanthanide decorporation agents” (priority 2017, dated 2023)
Values joined by “and” are separate entries in the source; they are usually repeats but may differ in a detail not shown here. Identical values can stand only once.

Experiment: Repeated-treatment efficacy for removing an intravenous dose of 238Pu (excretion, tissue retention, clinical observations), female and male arms;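 for % Recovered Dose - ART: ART is abdominal tissue remainder with GI tract reproductive organs spleen bladder fat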
Type: in vivo, Swiss-Webster mice
Experimental: The objective of this study was to characterize the efficacy of 3,4,3-L1(1,2-HOPO) at enhancing elimination from an internal plutonium burden in female and male Swiss-Webster mice administered a soluble citrate complex of ^238Pu and treated multiple times, starting at 24 hours after the exposure. Efficacy was evaluated by comparing the tissue contents, urinary and fecal excretions of ^238Pu in treated animals versus untreated animals.
The medical countermeasure 3,4,3-L1(1,2-HOPO) was administered parenterally (ip) or orally (po) via consecutive injections or gavages (six daily or twelve twice daily) starting at 24 hours post contamination at the following four selected doses: 30 μmol/kg ip, 150 μmol/kg po, 300 μmol/kg po, and 600 μmol/kg po (equivalent to respective approximate human doses range of […], using the accepted conversion system of mouse doses into human equivalent doses—HED—based on body surface area). Oral doses also included the permeability enhancer selected during formulation development work.
• Challenge isotope: ^238Pu • Challenge dose: 25 nCi (i.e., approximately 0.8 μCi/kg) • Route of contamination: Intravenous (iv) tail-vein • Route of treatment: Intraperitoneal Injection (ip) or Oral (po) • Frequency of treatment: Multiple (once- or twice-daily for 6 days) doses, starting 24 hr postcontamination • Treatment dose calculation: Dose calculations (mg/kg or μmol/kg) for the decorporation agent were based on the individual body weight measured after contamination. • Study Duration: 11 days, in-life
c. […] Test article and control dose formulations were prepared within 1 day of dose administration, by weighing out the appropriate amount of test article, dispersing in vehicle. For ip solutions, the test article was used alone, while for oral suspensions, a mixture of test article and excipient (90:10, w:w) was used. The pH was adjusted to 7.0-7.4 for ip administration and 5.0-5.5 for oral administration with sterile NaOH. Dose formulations were prepared at room temperature and filter-sterilized. • Storage: 2-8° C.; refrigerated; protected from light. • Characterization: The concentration of each test article formulation was verified by high-performance liquid chromatography-mass spectrometry. • Test Article Handling: Test, reference, and control article formulations were handled with the use of eye protection, gloves, and a protective laboratory coat. • Correct Dose Assurance: The test article was weighed with calibrated balances. The administration of each dose formulation was properly documented, and the amount administered to each animal recorded.
e. Experimental Procedures (In-Life Evaluations and Euthanasia) • Contamination: Single administration by intravenous (iv) tail-vein injection (0.2 mL injection volume) under isoflurane anesthesia. Three standard 0.2 mL injections were performed into polyethylene bottles and pre-loaded with aliquots of concentrated nitric acid on each injection day. Six female and six male mice were culled for necropsy 1 hr post-contamination and were used as standards. A11 standards were processed and counted together with the final samples to allow verification of the contamination dose. • Dose Administration: Single administration by intraperitoneal injection (ip) or oral gavage (po) under isoflurane anesthesia. • Mortality/Morbidity: Assessed at least once daily. • Clinical Observations: Recorded once daily (4 hr post-dose on day of treatment), or more often as clinical signs warranted. […]

[1] = female animals, D-7 necropsy, individual animals, listed as 3,4,3-LI(1,2-HOPO)
[2] = female animals, D-11 necropsy, individual animals, listed as 3,4,3-LI(1,2-HOPO)
[3] = male animals, Day 7 necropsy, animal group B, listed as 3,4,3-LI(1,2-HOPO)

O=C(NCCCN(CCCCN(CCCNC(=O)c1cccc(=O)n1O)C(=O)c1cccc(=O)n1O)C(=O)c1cccc(=O)n1O)c1cccc(=O)n1O [3,4,3-L1(1,2-HOPO)]
% Recovered Dose-Female Animals-Urine per Day-Day 11 Necropsy (animal group M, day 11, female mice, listed as 3,4,3-LI(1,2-HOPO)): 0.44% and 0.82% and 0.63% and 0.58% and 0.53% and 1.12% and 0.91% and 0.93% | 238Pu excretion path (female and male mice): predominantly through feces | adverse effect (female and male mice, parenteral or oral, all dose levels): No adverse effect | % Recovered Dose - Kidney (female animals, D-7 necropsy, individual animals (ID = group letter + number), dose/regimen of group not given, listed as 3,4,3-LI(1,2-HOPO)): 0.27% (2×) and 0.15% and 0.24% (2×) and 0.17% and 0.31% and 0.14% and 0.09% and 0.28% (2×) and 0.43% and 0.12% and 0.21% and 0.22% (2×) | % Recovered Dose - ART [1]: 1.01% and 1.36% and 1.12% (2×) and 1.30% and 1.21% and 1.29% and 1.37% and 1.20% and 0.98% (2×) and 1.39% and 1.24% (2×) and 1.16% and 1.59% | % Recovered Dose - Combined Body [1]: 34.79% and 38.75% and 40.32% and 37.43% and 36.37% and 39.78% and 31.50% and 26.07% and 36.12% and 35.98% and 41.72% and 33.15% and 35.58% and 25.26% and 33.24% and 36.43% | % Recovered Dose - Combined Excreta [1]: 65.21% and 61.25% and 59.68% and 62.57% and 63.63% and 60.22% and 68.50% and 73.93% and 63.88% and 64.02% and 58.28% and 66.85% and 64.42% and 74.74% and 66.76% and 63.57% | % Recovered Dose - Liver [1]: 8.04% and 11.52% and 14.05% and 17.71% and 5.50% and 9.28% and 7.15% and 5.47% and 15.03% and 5.40% and 15.12% and 5.35% and 15.19% and 6.77% and 11.56% and 16.40% | % Recovered Dose - SKEL [1]: 23.83% and 24.03% and 23.40% and 16.40% and 28.04% and 26.98% and 21.55% and 17.57% and 18.05% and 27.21% and 23.15% and 24.86% and 17.48% and 15.65% and 19.07% and 16.03% | % Recovered Dose - SOFT [1]: 1.63% (2×) and 1.69% and 1.50% and 1.75% and 1.54% and 2.00% and 1.36% and 1.57% and 1.61% and 2.12% and 1.58% and 1.55% and 1.38% and 1.41% and 2.13% | % Recovered Dose - Total Feces [1]: 37.37% and 25.66% and 41.03% and 28.59% and 40.61% and 26.74% and 36.25% and 39.09% and 25.39% and 34.86% and 39.63% and 37.46% and 28.91% and 37.33% and 32.34% and 24.62% | % Recovered Dose - Total Urine [1]: 27.84% and 35.60% and 18.65% (2×) and 33.98% and 23.02% and 33.48% and 32.25% and 34.83% and 38.49% and 29.16% and 29.39% and 35.51% and 37.41% and 34.43% and 38.95% | % Recovered Dose - Combined Body [2]: 17.98% and 75.50% and 20.85% and 19.27% and 21.23% and 20.95% and 24.13% and 19.99% and 25.13% and 24.87% and 27.98% and 26.74% and 30.36% and 31.29% and 29.30% and 29.18% and 27.61% and 23.71% and 21.16% and 25.90% and 28.33% and 29.52% and 30.59% and 27.44% | % Recovered Dose - Combined Excreta [2]: 82.02% and 24.50% and 79.15% and 80.73% and 78.77% and 79.05% and 75.87% and 80.01% and 74.87% and 75.13% and 72.02% and 73.26% and 69.64% and 68.71% and 70.70% and 70.82% and 72.39% and 76.29% and 78.84% and 74.10% and 71.67% and 70.48% and 69.41% and 72.56% | % Recovered Dose - GI Tract [2]: 0.65% and 1.84% and 0.77% and 0.48% and 0.55% and 0.52% and 0.62% and 0.54% and 0.97% and 0.80% (2×) and 1.10% and 0.99% and 0.95% and 1.50% and 0.96% and 0.87% and 0.70% and 0.91% and 0.68% and 0.50% and 1.19% and 0.81% and 1.03% | % Recovered Dose - Kidney [2]: 0.09% and 1.35% and 0.13% (2×) and 0.08% (2×) and 0.18% and 0.14% (4×) and 0.05% and 0.11% (2×) and 0.25% and 0.16% (2×) and 0.26% and 0.12% and 0.20% (2×) and 0.15% and 0.10% (2×) | % Recovered Dose - Liver [2]: 4.74% and 36.77% and 4.16% and 1.79% and 1.96% and 2.48% and 3.25% and 1.16% and 8.54% and 3.78% and 4.98% and 7.97% and 5.01% and 6.46% and 4.53% and 6.86% and 4.50% and 3.03% and 5.22% and 3.96% and 5.73% and 8.43% and 7.92% and 6.01% | % Recovered Dose - Soft Tissue [2]: 1.29% (2×) and 3.31% and 0.99% and 1.94% (2×) and 1.49% and 1.62% and 1.17% and 1.66% and 1.55% and 2.66% and 2.10% and 2.26% and 1.73% and 2.18% and 2.32% and 2.21% and 2.05% and 2.16% and 2.59% and 1.56% and 1.48% and 2.11% | % Recovered Dose - Total Bone [2]: 11.21% and 32.22% and 14.80% and 15.63% and 16.61% and 16.38% and 18.50% and 17.05% and 13.83% and 18.64% and 18.99% and 15.53% and 21.88% and 21.46% and 21.52% and 18.92% and 19.89% and 17.79% and 12.72% and 18.57% and 20.43% and 17.82% and 20.28% and 18.12% | % Recovered Dose - Total Feces [2]: 38.27% and 13.76% and 41.57% and 45.81% and 39.56% and 45.73% and 37.01% and 44.68% and 36.23% and 51.20% and 30.57% and 33.16% and 39.74% and 37.31% and 37.09% and 35.70% and 28.28% and 37.36% and 36.24% and 36.31% and 36.22% and 32.51% and 34.94% and 35.74% | % Recovered Dose - Total Urine [2]: 43.75% and 10.74% and 37.58% and 34.92% and 39.21% and 33.32% and 38.85% and 35.33% and 38.64% and 23.93% and 41.45% and 40.10% and 29.89% and 31.40% and 33.61% and 35.12% and 44.11% and 38.93% and 42.60% and 37.79% and 35.45% and 37.97% and 34.47% and 36.82% | % Recovered Dose - Feces per Day - Day 2 (female animals, Day 7 necropsy, Day 2, listed as 3,4,3-LI(1,2-HOPO)): 13.36% and 8.81% and 9.40% | % Recovered Dose - Feces per Day - Day 3 (female animals, Day 7 necropsy, Day 3, listed as 3,4,3-LI(1,2-HOPO)): 5.58% and 1.92% and 3.39% | % Recovered Dose - Feces per Day - Day 4 (female animals, Day 7 necropsy, Day 4, listed as 3,4,3-LI(1,2-HOPO)): 3.61% and 2.93% and 2.98% | % Recovered Dose - Feces per Day - Day 5 (female animals, Day 7 necropsy, Day 5, listed as 3,4,3-LI(1,2-HOPO)): 2.85% and 2.91% and 2.16% | % Recovered Dose - Feces per Day - Day 6 (female animals, Day 7 necropsy, Day 6, listed as 3,4,3-LI(1,2-HOPO)): 1.63% and 2.50% and 1.90% | % Recovered Dose - Feces per Day - Day 7 (female animals, Day 7 necropsy, Day 7, listed as 3,4,3-LI(1,2-HOPO)): 1.39% and 1.95% and 1.75% | increase in total 238Pu excretion compared to the control groups (female, 6 daily oral treatments, 600 μmol/kg, 11 days post-contamination): up to 143% | tissue content of 238Pu compared to saline control group (female, all analyzed tissues, all dosing regimens): large reductions | full body content of 238Pu compared to saline control groups (female, all treated groups): significant reductions | decrease in body burden compared to the control groups (female, once-daily oral 600 μmol/kg, 11 days post-contamination): up to 45% | decorporation efficacy relative to parenteral DTPA (female, oral once-daily 300 μmol/kg): equivalent to that of parenteral treatment with DTPA | 238Pu elimination enhancement (female, oral twice-daily 150 and 300 μmol/kg or once-daily 300 and 600 μmol/kg, 7 days post-contamination): significant | % Recovered Dose Urine per Day, Day 1 [3]: 20.65% and 15.62% and 19.53% and 17.05% | % Recovered Dose Urine per Day, Day 2 [3]: 2.02% and 2.81% and 2.18% and 1.96%
